How the values were obtained:
AHR-LexA chimera = target: T1, AHR-LexA chimera (UniProt P0A7C2+P30561); format: cell-based; conditions: for induction of lac Z activity over background: yeast GRS4 chimeric AHR-LexA system, average
T1 construct: expressed in transfected cells; host or cells: Saccharomyces cerevisiae strain GRS4 (with pTT8/hsp82) transformed with pEGAHRNΔ166 and pSH18-34
Experimental: Poon, D., Schroeder, S., Wang, C. […] Biol. 11, 4809-4821. […] (1 minute) then 50° C. (1 minute) and then 72° C. (1 minute) for 25 cycles.
β-Galactosidase assays carried out on the AHR-LexANΔ166 chimera system were performed as above except for the following changes. Yeast strains were grown from a single colony overnight at 30° C. in 2 ml of selection medium containing either 2% glucose or 2% galactose as a carbon source. Fifty microliters of this primary culture was used to inoculate a 1-ml culture of the same media containing appropriate concentrations of agonist dissolved in Me2SO. The culture was grown for 16-18 hours with vigorous shaking at room temperature. β-Galactosidase activity was determined by adding a 50-μl aliquot of the cultures to 650 μl of Z-buffer, permeabilizing the cells, and incubating with ONPG at 30° C. for 30 minutes. β-Galactosidase units were determined using the following formula: (A420)/(A600 of 1/10 dilution of cells×volume of culture×length of incubation))×1000.
As described above, strain GRS4 was transformed with a AHR-LexAN 166 fusion plasmid, pEGAHRNΔ166 containing the chimeric Ah receptor and a LexA operator reporter plasmid pSH18-34. In this system, expression of the reporter gene was dependent on pEGAHRNΔ166 expresson and on the presence of agonist. […] The dose-response curves obtained from this chimeric receptor system closely paralleled those of the complete AHR/ARNT/DRE pathway expressed in A303 cells.

full-length human AHR = full-length human AHR (Homo sapiens, UniProt P35869, F659I); conditions: for activation of the AHR over background (β-galactosidase): yeast A303 AHR/ARNT/DRE system, average of at least three independent experiments
Sequence of full-length human AHR (P27540 1-774 isoform P27540-2 partner, one chain of several): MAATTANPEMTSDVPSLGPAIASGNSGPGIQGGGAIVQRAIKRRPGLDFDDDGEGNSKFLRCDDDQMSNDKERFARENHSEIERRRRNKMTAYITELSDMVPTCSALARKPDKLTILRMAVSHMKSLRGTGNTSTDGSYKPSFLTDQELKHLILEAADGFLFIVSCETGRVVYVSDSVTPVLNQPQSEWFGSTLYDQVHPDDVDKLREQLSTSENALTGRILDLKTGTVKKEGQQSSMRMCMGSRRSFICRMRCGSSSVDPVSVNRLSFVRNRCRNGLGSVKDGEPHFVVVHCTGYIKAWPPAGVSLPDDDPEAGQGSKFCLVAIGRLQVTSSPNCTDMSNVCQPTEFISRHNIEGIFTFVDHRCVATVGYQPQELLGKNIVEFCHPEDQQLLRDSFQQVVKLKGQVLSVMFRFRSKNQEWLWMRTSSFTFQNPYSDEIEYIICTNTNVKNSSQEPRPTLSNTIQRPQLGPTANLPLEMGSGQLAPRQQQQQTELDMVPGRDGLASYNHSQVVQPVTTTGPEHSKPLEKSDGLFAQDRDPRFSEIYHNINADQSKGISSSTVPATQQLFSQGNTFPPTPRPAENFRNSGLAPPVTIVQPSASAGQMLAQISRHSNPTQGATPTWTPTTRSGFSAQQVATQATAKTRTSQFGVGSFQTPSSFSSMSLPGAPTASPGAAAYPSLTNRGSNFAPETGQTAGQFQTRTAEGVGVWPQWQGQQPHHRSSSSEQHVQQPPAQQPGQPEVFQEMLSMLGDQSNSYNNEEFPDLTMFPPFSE
From the text: S. cerevisiae strain A303 (Mata, ura3-52, trpIΔI, his3Δ200, leu2Δ1) was used as a host to transform the AHR, ARNT, and the lacZ reporter gene driven by two DREs. […] To construct the pCWhuAHR, the full-length human AHR was excised from plasmid phμAHR2, (See Dolwick, K. M., Schmidt, J. V., Carrer, L. A., Swanson, H. I., and Bradfield, C. A. (1993) Mol. Pharmacol. 44, 911-917), with XmaI and cloned into the corresponding site of pCW10. pY2ARNT was constructed by digesting plasmid pBM5/NEO-M1-1 with BamHI and subcloning the ARNT fragment into the corresponding site of the expression vector pYPGE2, a 2 μ, TRP1-marked plasmid containing a phosphoglycerate kinase promoter to drive expression. […] The reporter plasmid pDRE23-Z was constructed by first subcloning the HindIII/EcoRI fragment of pGEMLS3.2, (See Denison, M. S., Fisher, J. M., and Whitlock, J. P. J. (1988) Proc. Natl. Acad. Sci. U.S.A. 85, 2528-2532), containing DRE2-DRE3 into pBluescriptSK (Stratagene) to generate pSKDRE23. The DRE2-DRE3 fragment was subsequently amplified by polymerase chain reaction from pSKDRE23 using 50 pmol of primers OL146 (5′-[sequence]-3′ SEQUENCE ID NO. 24) and OL290 (5′-[sequence]-3′ SEQUENCE ID NO. 25) in a 50-μl reaction containing 200 μm each dNTP, 2 mM MgCl2 10 mm Tris, 50 mM KCl, 0.001% gelatin (w\v). The reaction was incubated at 95° C. for 5 minutes, then 72° C. for 5 minutes during which 2.5 units of Taq polymerases were added and the reaction continued at 95° C. (1 minute) then 50° C. (1 minute) and then 72° C. (1 minute) for 25 cycles.
Plasmids were sequentially transformed into the appropriate yeast strain by electroporation, (See Becker, D. M., and Guarente, L. (1991) Methods of Enzymol. 194, 182-187), or by a modified LiAc method (See Schiestl, R. H., and Giest, R. D. (1989) Curr. Genet. 16, 339-346). For electroporation, 100-500 ng of plasmid DNA was added to 50 μl or electrocompetent cells and incubated on ice for 5 minutes.

AHR = conditions: reported, Knutson and Poland (1981); read-out: AHR binding constants (KD values); cited from earlier work
murine Ah-receptor = target: T2, murine Ah-receptor (Mus musculus, UniProt P30561); test: photoaffinity labeling with [125I]-2-azido-3-iodo-7,8-dibromodibenzo-p-dioxin, competition by agonist; format: binding; conditions: excess of β-naphthoflavone; murine cDNA expressed in COS-1 cells, cytosolic fraction
T2 construct: The resulting full length murine Ah-receptor clone was then subcloned into the SpeI and HindIII sites of pSV-Sport1; expressed in transfected cells; host or cells: COS-1 cells electroporated with pmuAhR (cytosol); also in vitro translation in TNT rabbit reticulocyte lysate (Promega)
T2 sequence (P30561 10-805 S74T/M324I/F348L/P471L/N533S/M589L/T758A limits assumed): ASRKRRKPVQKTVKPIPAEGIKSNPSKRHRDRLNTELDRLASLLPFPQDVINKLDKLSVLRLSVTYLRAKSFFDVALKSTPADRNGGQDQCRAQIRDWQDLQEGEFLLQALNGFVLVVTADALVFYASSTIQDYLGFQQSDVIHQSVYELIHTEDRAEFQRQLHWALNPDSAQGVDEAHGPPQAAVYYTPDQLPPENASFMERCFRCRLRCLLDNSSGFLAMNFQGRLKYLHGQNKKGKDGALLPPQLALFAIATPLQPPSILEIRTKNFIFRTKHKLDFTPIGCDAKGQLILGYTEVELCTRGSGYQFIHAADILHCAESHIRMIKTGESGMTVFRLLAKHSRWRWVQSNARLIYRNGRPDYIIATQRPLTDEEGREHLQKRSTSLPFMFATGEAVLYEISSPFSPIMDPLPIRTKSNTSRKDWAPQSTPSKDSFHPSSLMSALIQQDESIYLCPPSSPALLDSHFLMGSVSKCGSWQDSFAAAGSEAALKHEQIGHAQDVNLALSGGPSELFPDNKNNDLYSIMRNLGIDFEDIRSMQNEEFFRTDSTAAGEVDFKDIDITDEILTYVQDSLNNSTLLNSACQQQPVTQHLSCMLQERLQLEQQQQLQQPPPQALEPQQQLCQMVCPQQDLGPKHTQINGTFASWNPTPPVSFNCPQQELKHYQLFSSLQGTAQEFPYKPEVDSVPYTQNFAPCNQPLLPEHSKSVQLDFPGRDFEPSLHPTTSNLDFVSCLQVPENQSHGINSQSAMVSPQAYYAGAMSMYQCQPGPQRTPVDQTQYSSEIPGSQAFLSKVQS
Experimental: (§1) Photoaffinity labeling using the ligand, [^125I]-2-azido-3-iodo-7,8-dibromodibenzo-p-dioxin (specific activity=0.5 μCiμl), was carried out in 50 μl reactions in MENG buffer. Samples were incubated with 0.25 μCi of ligand (0.1 pmoles) ±100 nM β-naphthoflavone 30 minutes at room temperature, cooled on ice and incubated with one fifth of charcoal/gelatin (3%/0.3% w/v) for 30 minutes on ice. The charocal/gelatin was subjected to centrifugation at 14,000 rpm for 5 minutes at 4° C. and the supernatant was irradiated with ultraviolet light at 0.8 J/cm2 followed by addition of 300 mM β-mercaptoethanol. Acetone precipitates were resuspended in 1×Laemmli sample buffer and subjected to 7.5% SDS-PAGE and autoradiograph as described in Sambrook, J., Fritsch, E. F., Maniatis, T., Molecular Cloning: A Laboratory Manual/second edition (Cold Spring Harbor Laboratory Press, 1989).
(§2) Photoaffinity labeling of murine (muAhR) and human (huAhR) Ah-receptors expressed in COS-1 cells. […]
(§3) Experiments were carried out using the TNT Coupled Reticulocyte Lysate System (PROMEGA). […] The efficiency of expression was analyzed in parallel experiments utilizing ^35S-methionine labeling and autoradiography and Western blot analysis using affinity-purified goat antibody raised against an N-terminal peptide derived from the murine Ah-receptor. […]

human Ah-receptor = target: T3, human Ah-receptor (Homo sapiens, UniProt P35869, F659I); test: as above; format: binding; conditions: excess of β-naphthoflavone; human cDNA expressed in COS-1 cells, cytosolic fraction
T3 construct: 102 nucleotides downstream of the stop codon of the full length human Ah-receptor cDNA clone; expressed in transfected cells; host or cells: COS-1 cells electroporated with phuAhR (cytosol, 10 mM molybdate); also in vitro translation in TNT rabbit reticulocyte lysate (Promega)
T3 sequence (P35869 11-848 F659I): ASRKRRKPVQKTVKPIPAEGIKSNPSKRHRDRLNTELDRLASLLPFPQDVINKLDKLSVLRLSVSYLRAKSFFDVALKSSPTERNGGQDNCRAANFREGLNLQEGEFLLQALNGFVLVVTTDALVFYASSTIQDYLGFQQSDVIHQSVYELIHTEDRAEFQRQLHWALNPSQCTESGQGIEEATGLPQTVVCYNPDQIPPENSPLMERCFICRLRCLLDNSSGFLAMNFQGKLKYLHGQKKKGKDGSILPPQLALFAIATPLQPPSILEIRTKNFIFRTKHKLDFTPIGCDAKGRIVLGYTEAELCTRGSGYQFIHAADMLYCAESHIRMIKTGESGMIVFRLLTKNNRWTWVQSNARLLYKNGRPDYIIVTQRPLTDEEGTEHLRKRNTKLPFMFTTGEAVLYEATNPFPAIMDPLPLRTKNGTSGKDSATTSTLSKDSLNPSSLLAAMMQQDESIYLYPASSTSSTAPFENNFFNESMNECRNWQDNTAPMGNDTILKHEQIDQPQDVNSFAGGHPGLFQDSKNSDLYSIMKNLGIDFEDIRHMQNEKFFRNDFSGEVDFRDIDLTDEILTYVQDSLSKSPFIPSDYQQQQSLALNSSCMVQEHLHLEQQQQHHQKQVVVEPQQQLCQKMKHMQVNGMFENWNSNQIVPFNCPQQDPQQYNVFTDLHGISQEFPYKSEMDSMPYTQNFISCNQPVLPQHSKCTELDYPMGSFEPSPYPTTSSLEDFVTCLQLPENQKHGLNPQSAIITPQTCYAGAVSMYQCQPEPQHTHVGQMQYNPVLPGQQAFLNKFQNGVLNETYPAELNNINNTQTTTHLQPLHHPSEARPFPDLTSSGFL
Experimental: as §1, §2, §3

T1 sequence (P0A7C2+P30561 fused with the stated changes): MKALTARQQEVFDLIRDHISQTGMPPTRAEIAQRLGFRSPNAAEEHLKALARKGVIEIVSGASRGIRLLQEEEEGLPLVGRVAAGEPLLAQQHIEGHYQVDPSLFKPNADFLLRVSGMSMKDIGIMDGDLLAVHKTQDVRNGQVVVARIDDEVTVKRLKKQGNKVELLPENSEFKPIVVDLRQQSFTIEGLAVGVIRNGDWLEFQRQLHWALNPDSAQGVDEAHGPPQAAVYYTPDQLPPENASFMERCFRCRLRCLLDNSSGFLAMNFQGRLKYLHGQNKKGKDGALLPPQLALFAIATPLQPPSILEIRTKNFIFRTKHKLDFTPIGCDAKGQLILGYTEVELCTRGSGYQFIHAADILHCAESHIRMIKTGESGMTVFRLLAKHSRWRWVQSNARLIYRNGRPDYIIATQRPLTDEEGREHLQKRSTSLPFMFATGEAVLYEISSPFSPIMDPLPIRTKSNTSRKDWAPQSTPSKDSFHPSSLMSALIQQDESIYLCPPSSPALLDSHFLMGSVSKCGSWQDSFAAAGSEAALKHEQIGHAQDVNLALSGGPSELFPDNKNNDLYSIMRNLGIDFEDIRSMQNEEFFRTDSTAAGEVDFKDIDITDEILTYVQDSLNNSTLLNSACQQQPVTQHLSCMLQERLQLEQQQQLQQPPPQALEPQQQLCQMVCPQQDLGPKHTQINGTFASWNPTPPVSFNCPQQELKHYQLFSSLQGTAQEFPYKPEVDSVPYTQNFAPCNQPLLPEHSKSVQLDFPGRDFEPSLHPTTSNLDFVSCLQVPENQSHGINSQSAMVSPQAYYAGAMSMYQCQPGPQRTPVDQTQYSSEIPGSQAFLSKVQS

SMILES	induction of lac Z activity over background (AHR-LexA chimera) [fold]	EC50 (full-length human AHR) [nM]	activation of the AHR over background (β-galactosidase) (full-length human AHR) [fold]	Kd (AHR) [nM]	EC50 (AHR-LexA chimera; yeast GRS4 with pEGAHRNΔ166 and pSH18-34, agonist 16-18 hours, read-out: EC50 (LexA operator lacZ reporter)) [nM]	inhibition of photoaffinity labeling of the receptor (murine Ah-receptor)	inhibition of photoaffinity labeling of the receptor (human Ah-receptor)
O=c1cc(-c2ccccc2)oc2c1ccc1ccccc12 [αNF, α-naphthoflavone]	90	800	12	29	–	–	–
O=c1cc(-c2ccccc2)oc2ccc3ccccc3c12 [βNF, β-naphthoflavone]	90	79	12	[…]	61	inhibited the labeling of the receptors	inhibited the labeling of the receptors

— patent US20050288488A1, “Ah receptor cDNA and genetically engineered cells for detecting agonists to the Ah receptor” (Northwestern University, priority 1993, published 2005)
